pEC50: −log10 of the molar value. Where two headings read alike, the source gives them in different places.
What was measured:
human TLR7 = molecular target: T1, human TLR7 (Homo sapiens, UniProt Q9NYK1); assay: HEK293 NFKB reporter assay, human TLR7; format: cell-based
T1 construct: host or cells: HEK293 reporter cells
T1 sequence (Q9NYK1 27-1049): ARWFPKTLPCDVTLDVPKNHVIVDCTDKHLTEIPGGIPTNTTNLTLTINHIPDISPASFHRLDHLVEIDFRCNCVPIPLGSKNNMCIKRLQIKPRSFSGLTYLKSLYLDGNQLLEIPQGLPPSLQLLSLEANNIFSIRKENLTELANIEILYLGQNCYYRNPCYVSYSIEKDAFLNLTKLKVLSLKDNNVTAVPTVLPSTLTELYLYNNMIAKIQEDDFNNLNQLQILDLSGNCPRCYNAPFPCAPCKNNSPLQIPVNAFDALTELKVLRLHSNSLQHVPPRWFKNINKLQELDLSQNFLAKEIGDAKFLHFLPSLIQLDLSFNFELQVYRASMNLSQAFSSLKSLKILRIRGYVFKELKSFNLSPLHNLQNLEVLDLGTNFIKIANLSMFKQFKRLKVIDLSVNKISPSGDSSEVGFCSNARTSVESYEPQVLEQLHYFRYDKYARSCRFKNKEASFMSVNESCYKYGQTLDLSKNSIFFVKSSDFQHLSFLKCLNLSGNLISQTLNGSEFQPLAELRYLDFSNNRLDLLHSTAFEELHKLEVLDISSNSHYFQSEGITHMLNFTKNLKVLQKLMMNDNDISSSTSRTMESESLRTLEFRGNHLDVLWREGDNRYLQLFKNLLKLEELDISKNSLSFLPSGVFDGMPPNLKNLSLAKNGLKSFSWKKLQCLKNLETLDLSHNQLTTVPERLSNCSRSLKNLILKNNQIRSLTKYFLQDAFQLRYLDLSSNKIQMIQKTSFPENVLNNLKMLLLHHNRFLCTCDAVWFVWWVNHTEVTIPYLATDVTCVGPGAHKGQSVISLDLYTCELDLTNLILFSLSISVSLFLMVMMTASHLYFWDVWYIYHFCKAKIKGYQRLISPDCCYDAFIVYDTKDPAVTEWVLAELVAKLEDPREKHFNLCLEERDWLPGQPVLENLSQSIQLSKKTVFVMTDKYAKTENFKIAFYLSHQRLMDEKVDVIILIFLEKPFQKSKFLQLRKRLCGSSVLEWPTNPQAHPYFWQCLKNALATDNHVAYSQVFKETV
Procedure: (§1) Each compound was synthesized and purified by the methods in the Examples provided herein, characterized by mass spectrometry, and shown to have the mass indicated. Activity against HEK293 NFKB reporter cells expressing human TLR7 or human TLR8 was measured according to Example 68.
(§2) HEK293 reporter cells expressing human TLR7 or human TLR8 were purchased from Invivogen and vendor protocols were followed for cellular propagation and experimentation. Briefly, cells were grown to 80-85% confluence at 5% CO2 in DMEM supplemented with 10% FBS, Zeocin, and Blasticidin. Cells were then seeded in 96-well flat plates at 4×10^4cells/well with substrate containing HEK detection medium and immunostimulatory molecules. Activity was measured using a plate reader at 620-655 nm wavelength.

human TLR8 = molecular target: T2, human TLR8 (Homo sapiens, UniProt Q9NR97); assay: HEK293 NFKB reporter assay, human TLR8; format: cell-based
T2 construct: host or cells: HEK293 reporter cells
T2 sequence (Q9NR97 27-1041): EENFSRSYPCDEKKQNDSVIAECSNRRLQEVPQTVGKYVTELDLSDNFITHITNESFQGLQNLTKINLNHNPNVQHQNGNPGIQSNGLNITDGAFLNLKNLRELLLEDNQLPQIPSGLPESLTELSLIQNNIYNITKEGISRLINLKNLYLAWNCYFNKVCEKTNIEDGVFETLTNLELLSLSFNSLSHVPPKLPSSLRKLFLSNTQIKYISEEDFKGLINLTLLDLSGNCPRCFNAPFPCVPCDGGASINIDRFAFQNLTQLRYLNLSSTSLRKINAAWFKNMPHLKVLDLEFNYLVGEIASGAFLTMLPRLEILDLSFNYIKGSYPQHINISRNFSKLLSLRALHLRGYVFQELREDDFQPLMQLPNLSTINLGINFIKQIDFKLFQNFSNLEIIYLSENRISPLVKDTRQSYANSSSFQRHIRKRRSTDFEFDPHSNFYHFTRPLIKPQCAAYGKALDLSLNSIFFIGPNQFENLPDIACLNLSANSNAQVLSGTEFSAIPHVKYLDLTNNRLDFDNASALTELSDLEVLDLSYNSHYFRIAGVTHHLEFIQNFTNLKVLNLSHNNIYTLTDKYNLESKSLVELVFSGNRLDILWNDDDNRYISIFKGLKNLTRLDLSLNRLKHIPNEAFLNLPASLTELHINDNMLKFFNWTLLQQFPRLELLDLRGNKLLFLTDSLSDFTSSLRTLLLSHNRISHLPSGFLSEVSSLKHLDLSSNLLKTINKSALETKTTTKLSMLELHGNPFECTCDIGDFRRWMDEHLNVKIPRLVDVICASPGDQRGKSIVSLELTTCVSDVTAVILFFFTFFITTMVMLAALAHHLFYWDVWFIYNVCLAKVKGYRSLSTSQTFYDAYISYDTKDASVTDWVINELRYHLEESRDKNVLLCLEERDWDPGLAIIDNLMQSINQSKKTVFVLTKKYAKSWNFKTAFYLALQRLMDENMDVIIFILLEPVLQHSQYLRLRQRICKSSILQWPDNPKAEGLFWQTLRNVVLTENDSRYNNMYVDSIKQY
Procedure: as §1, §2

[1] = Table 1a, HEK293 reporter cells expressing human TLR7, read-out: HEK293 hTLR7 EC50
[2] = Table 1a, HEK293 reporter cells expressing human TLR8, read-out: HEK293 hTLR8 EC50
[3] = Table 1b, HEK293 reporter cells expressing human TLR7, read-out: HEK293 hTLR7 EC50
[4] = Table 1b, HEK293 reporter cells expressing human TLR8, read-out: HEK293 hTLR8 EC50

Structure (SMILES)	pEC50 (human TLR7; [3])	pEC50 (human TLR8; [4])	also measured
CCCN(CCCNC(=O)OCC)C(=O)C1=Cc2ccc(-c3cccc(S(=O)(=O)N4CC(CO)C4)c3)cc2N=C(N)C1 [Bz-13, ethyl N-[3-[[2-amino-8-[3-[3-(hydroxymethyl)azetidin-1-yl]sulfonylphenyl]-3H-1-benzazepine-4-carbonyl]-propyl-amino]propyl]carbamate]			pEC50 (human TLR7): 5.86; pEC50 (human TLR8): 6.87
CCCN(CCC)C(=O)C1=Cc2c(CCCCN)cc(-c3cccc(S(=O)(=O)N4CC(CO)C4)c3)cc2N=C(N)C1 [Bz-14, 2-Amino-6-(4-aminobutyl)-8-(3-((3-(hydroxymethyl)azetidin-1-yl)sulfonyl)phenyl)-N,N-dipropyl-3H-benzo[b]azepine-4-carboxamide]			pEC50 (human TLR7; [1]): < 5.05; pEC50 (human TLR8; [2]): 5.77
CCCN(CCC)C(=O)C1=Cc2ccc(-c3cccc(S(=O)(=O)N4CC(CN)C4)c3)cc2N=C(N)C1 [Bz-15, 2-amino-8-[3-[3-(aminomethyl)azetidin-1-yl]sulfonylphenyl]-N,N-dipropyl-3H-1-benzazepine-4-carboxamide]			pEC50 (human TLR7; [1]): < 5.05; pEC50 (human TLR8; [2]): 6.99
CCCN(CCCNC(=O)OC(C)(C)C)C(=O)C1=Cc2ccc(C(=O)Nc3ccc(N4CCC(C(=O)NCCNC(C)=O)CC4)nc3)cc2N=C(N)C1 [Bz-16, tert-butyl (3-(8-((6-(4-((2-acetamidoethyl)carbamoyl)piperidin-1-yl)pyridin-3-yl)carbamoyl)-2-amino-N-propyl-3H-benzo[b]azepine-4-carboxamido)propyl)carbamate]			pEC50 (human TLR7; [1]): < 5.05; pEC50 (human TLR8; [2]): 5.98
CCCN(CCCNC(=O)CC(C)(C)C)C(=O)C1=Cc2ccc(-c3cccc(S(=O)(=O)N4CC(CO)C4)c3)cc2N=C(N)C1 [Bz-19, 2-amino-N-(3-(3,3-dimethylbutanamido)propyl)-8-(3-((3-(hydroxymethyl)azetidin-1-yl)sulfonyl)phenyl)-N-propyl-3H-benzo[b]azepine-4-carboxamide]	5.97	5.50	
CCCN(CCCOCCOCCN)C(=O)C1=Cc2ccc(-c3cccc(S(=O)(=O)N4CC(CO)C4)c3)cc2N=C(N)C1 [Bz-21, 2-amino-N-(3-(2-(2-aminoethoxy)ethoxy)propyl)-8-(3-((3-(hydroxymethyl)azetidin-1-yl)sulfonyl)phenyl)-N-propyl-3H-benzo[b]azepine-4-carboxamide]	< 5.05	< 5.05	
CCCN(CC#CCNC(=O)OC(C)(C)C)C(=O)C1=Cc2ccc(-c3cccc(S(=O)(=O)N4CC(CO)C4)c3)cc2N=C(N)C1 [Bz-26, tert-butyl N-[4-[[2-amino-8-[3-[3-(hydroxymethyl)azetidin-1-yl]sulfonylphenyl]-3H-1-benzazepine-4-carbonyl]-propyl-amino]but-2-ynyl]carbamate]	< 5.05	6.50	
CCCN(CC#CCNC(=O)OC(C)(C)C)C(=O)C1=Cc2ccc(-c3cccc(S(=O)(=O)N4CC(CN(C)C)C4)c3)cc2N=C(N)C1 [Bz-28, tert-butyl N-[4-[[2-amino-8-[3-[3-[(dimethylamino)methyl]azetidin-1-yl]sulfonylphenyl]-3H-1-benzazepine-4-carbonyl]-propyl-amino]but-2-ynyl]carbamate]	5.37	7.37	

The next lines start with results.

pEC50 (human TLR7; [3])	pEC50 (human TLR8; [4])	Structure (SMILES)	also measured
< 5.05	< 5.05	CCCN(CCCN)C(=O)C1=Cc2ccc(-c3cccc(S(=O)(=O)N4CC(CO)C4)c3)cc2N=C(N)C1 [Bz-17, 2-amino-N-(3-aminopropyl)-8-[3-[3-(hydroxymethyl)azetidin-1-yl]sulfonylphenyl]-N-propyl-3H-1-benzazepine-4-carboxamide]	
5.70	5.47	CCCN(CCCOCCCN)C(=O)C1=Cc2ccc(-c3cccc(S(=O)(=O)N4CC(CO)C4)c3)cc2N=C(N)C1 [Bz-18, 2-amino-N-(3-(3-aminopropoxy)propyl)-8-(3-((3-(hydroxymethyl)azetidin-1-yl)sulfonyl)phenyl)-N-propyl-3H-benzo[b]azepine-4-carboxamide]	
< 5.05	< 5.05	CCCN(CCCCCN)C(=O)C1=Cc2ccc(-c3cccc(S(=O)(=O)N4CC(CO)C4)c3)cc2N=C(N)C1 [Bz-20, 2-amino-N-(5-aminopentyl)-8-(3-((3-(hydroxymethyl)azetidin-1-yl)sulfonyl)phenyl)-N-propyl-3H-benzo[b]azepine-4-carboxamide]	
< 5.05	< 5.05	CCCN(C/C=C/CN)C(=O)C1=Cc2ccc(-c3cccc(S(=O)(=O)N4CC(CO)C4)c3)cc2N=C(N)C1 [Bz-22, 2-amino-N-[(E)-4-aminobut-2-enyl]-8-[3-[3-(hydroxymethyl)azetidin-1-yl]sulfonylphenyl]-N-propyl-3H-1-benzazepine-4-carboxamide]	
5.61	5.93	CCCN(CCCNc1ncccn1)C(=O)C1=Cc2ccc(-c3cccc(S(=O)(=O)N4CC(CO)C4)c3)cc2N=C(N)C1 [Bz-23, 2-amino-8-[3-[3-(hydroxymethyl)azetidin-1-yl]sulfonylphenyl]-N-propyl-N-[3-(pyrimidin-2-ylamino)propyl]-3H-1-benzazepine-4-carboxamide]	
< 5.05	< 5.05	CCCN(CCCCN)C(=O)C1=Cc2ccc(-c3cccc(S(=O)(=O)N4CC(CO)C4)c3)cc2N=C(N)C1 [Bz-24, 2-amino-N-(4-aminobutyl)-8-[3-[3-(hydroxymethyl)azetidin-1-yl]sulfonylphenyl]-N-propyl-3H-1-benzazepine-4-carboxamide]	
< 5.05	5.85	CCCN(CCc1ccc(OC)cc1)C(=O)C1=Cc2ccc(-c3cccc(S(=O)(=O)N4CC(CO)C4)c3)cc2N=C(N)C1 [Bz-25, 2-amino-8-[3-[3-(hydroxymethyl)azetidin-1-yl]sulfonylphenyl]-N-[2-(4-methoxyphenyl)ethyl]-N-propyl-3H-1-benzazepine-4-carboxamide]	
< 5.05	6.86	CCCN(Cc1ccc(CN)cc1)C(=O)C1=Cc2ccc(-c3cccc(S(=O)(=O)N4CC(CO)C4)c3)cc2N=C(N)C1 [Bz-27, 2-Amino-N-(4-(aminomethyl)benzyl)-8-(3-((3-(hydroxymethyl)azetidin-1-yl)sulfonyl)phenyl)-N-propyl-3H-benzo[b]azepine-4-carboxamide]	
< 5.05	7.49	CCCN(OCC)C(=O)C1=Cc2ccc(-c3cccc(S(=O)(=O)N4CC(CO)C4)c3)cc2N=C(N)C1 [Bz-29, 2-amino-N-ethoxy-8-[3-[3-(hydroxylmethyl)azetidin-1-yl]sulfonylphenyl]-N-propyl-3H-1-benzazepine-4-carboxamide]	

Reference: patent US20200390899A1, “AMINOBENZAZEPINE COMPOUNDS, IMMUNOCONJUGATES, AND USES THEREOF” (BOLT BIOTHERAPEUTICS, INC., priority 2019, published 2020)
